Experiments:
barnyardgrass [1] = assay: Test B pre-/postemergence herbicide test; type: in vivo, Echinochloa crus-galli; details: for Barnyardgrass plant response rating (0 to 100 scale) / Plant response rating, Barnyardgrass: 0 = no effect, 100 = complete control; for Barnyardgrass plant response rating: postemergence
How it was run: (§1)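 Test chemicals in a non-phytotoxic solvent mixture with surfactant were applied preemergence to seeded species and postemergence to plants 2-18 cm tall (1- to 4-leaf stage); rice and barnyardgrass were also tested in a flooded paddy at the 2-leaf stage. Visual rating versus controls after 13-15 days in greenhouse, scale 0 (no effect) to 100 (complete control).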

Surinam grass = assay: Test B pre-/postemergence herbicide test; type: in vivo, Urochloa decumbens; details: for Surinam Grass plant response rating (0 to 100 scale) / Plant response rating, Surinam Grass: 0 = no effect, 100 = complete control; for Surinam Grass plant response rating: postemergence
How it was run: (§2)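 Plants compared with untreated controls 13–15 days post-treatment and given a visual 0–100 injury score. Applications: preemergence to seeds; postemergence at 1- to 4-leaf (2–18 cm); paddy species flooded, 2-leaf stage. Vehicle non-phytotoxic, surfactant included.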

cocklebur = assay: Test B pre-/postemergence herbicide test; type: in vivo, Xanthium strumarium; details: for Cocklebur plant response rating (0 to 100 scale) / Plant response rating, Cocklebur: 0 = no effect, 100 = complete control; for Cocklebur plant response rating: postemergence
How it was run: as §1

corn = assay: Test B pre-/postemergence herbicide test; type: in vivo, Zea mays; details: for Corn plant response rating (0 to 100 scale) / Plant response rating, Corn: 0 = no effect, 100 = complete control; for Corn plant response rating: postemergence
How it was run: as §2

large crabgrass = assay: Test B pre-/postemergence herbicide test; type: in vivo, Digitaria sanguinalis; details: for Crabgrass, Large plant response rating (0 to 100 scale) / Plant response rating, Crabgrass, Large: 0 = no effect, 100 = complete control; for Crabgrass, Large plant response rating: postemergence
How it was run: as §2

giant foxtail = assay: Test B pre-/postemergence herbicide test; type: in vivo, Setaria faberi; details: for Foxtail, Giant plant response rating (0 to 100 scale) / Plant response rating, Foxtail, Giant: 0 = no effect, 100 = complete control; for Foxtail, Giant plant response rating: postemergence
How it was run: as §2

lambsquarters = assay: Test B pre-/postemergence herbicide test; type: in vivo, Chenopodium album; details: for Lambsquarters plant response rating (0 to 100 scale) / Plant response rating, Lambsquarters: 0 = no effect, 100 = complete control; for Lambsquarters plant response rating: postemergence
How it was run: as §2

morningglory = assay: Test B pre-/postemergence herbicide test; type: in vivo, Ipomoea coccinea; details: for Morningglory plant response rating (0 to 100 scale) / Plant response rating, Morningglory: 0 = no effect, 100 = complete control; for Morningglory plant response rating: postemergence
How it was run: as §1

velvetleaf = assay: Test B pre-/postemergence herbicide test; type: in vivo, Abutilon theophrasti; details: for Velvetleaf plant response rating: postemergence; for Plant response rating, Velvetleaf: 0 = no effect, 100 = complete control
How it was run: as §2

blackgrass = assay: Test B postemergence herbicide test; type: in vivo, Alopecurus myosuroides; details: postemergence
How it was run: (§3)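 Paddy species grown to the 2-leaf stage under flooding; blackgrass sprayed postemergence at 2–18 cm (1- to 4-leaf stage). Plants kept in a greenhouse for 13 to 15 days, then visually rated against controls on 0 (no effect) to 100 (complete control).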

wheat = assay: Test B postemergence herbicide test; type: in vivo, Triticum aestivum; parameters: key to Wheat plant response rating: 0 = no effect, 100 = complete control; details: postemergence
How it was run: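 Each value is a visual 0–100 response rating taken against controls 13 to 15 days after treatment in the greenhouse. Plants received formulated chemical postemergence at the 1- to 4-leaf stage or, in flooded paddy, at the 2-leaf stage.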

rice = assay: Test B flooded paddy test; type: in vivo, Oryza sativa; details: 1000 g ai/ha, scale 0 to 100 (0 no effect, 100 complete control)
How it was run: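 Formulated test chemicals went onto postemergence plants measuring 2 to 18 cm, at one to four leaves. For the paddy assay, species had reached two leaves. Scoring took place 13–15 days later by eye, relative to untreated plants, using 0 for no effect up to 100 for full control.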

[2] = test system: small flower umbrella sedge; assay: Test B flooded paddy test; type: in vivo, Cyperus difformis; details: 1000 g ai/ha, scale 0 to 100 (0 no effect, 100 complete control)
How it was run: as §3

ducksalad = assay: Test B flooded paddy test; type: in vivo, Heteranthera limosa; details: 1000 g ai/ha, scale 0 to 100 (0 no effect, 100 complete control)
How it was run: as §3

barnyardgrass [3] = assay: Test B flooded paddy test; type: in vivo, Echinochloa crus-galli; details: 1000 g ai/ha, scale 0 to 100 (0 no effect, 100 complete control)
How it was run: as §3

[4] = 125 g ai/ha, visual rating, scale 0 (no effect) to 100 (complete control)
[5] = 500 g ai/ha, visual rating, preemergence
[6] = 500 g ai/ha, scale 0 to 100, 0 is no effect, 100 is complete control
[7] = 125 g ai/ha, 0 is no effect, 100 is complete control, preemergence

CCOC(=O)c1ccc(F)c(NC(=O)c2cc(C3(C)CC3)nn2CC)c1 [Compound 296]
100: Plant response rating, Crabgrass, Large (large crabgrass; [5]) | Plant response rating, Lambsquarters (lambsquarters; [5]) | Velvetleaf plant response rating (velvetleaf; [6])
40: Surinam Grass plant response rating (Surinam grass; [4]) | Plant response rating, Corn (corn; [5]) | Crabgrass, Large plant response rating (0 to 100 scale) (large crabgrass; 125 g ai/ha, preemergence) | Blackgrass plant response rating (blackgrass; [6])
20: Surinam Grass plant response rating (0 to 100 scale) (Surinam grass; 125 g ai/ha, preemergence) | Plant response rating, Morningglory (morningglory; [5]) | Wheat plant response rating (wheat; [4])
10: Morningglory plant response rating (0 to 100 scale) (morningglory; 125 g ai/ha, preemergence)
80: Barnyardgrass plant response rating (barnyardgrass [1]; [6]) | Morningglory plant response rating (morningglory; [6]) | Plant response rating, Velvetleaf (velvetleaf; [5]) | Sedge, Umbrella plant response rating [2] | Ducksalad plant response rating (ducksalad) | Barnyardgrass plant response rating (barnyardgrass [3])
70: Corn plant response rating (corn; [6]) | Foxtail, Giant plant response rating (0 to 100 scale) (giant foxtail; 125 g ai/ha, preemergence) | Lambsquarters plant response rating (lambsquarters; [6])
50: Surinam Grass plant response rating (Surinam grass; [6]) | Cocklebur plant response rating (cocklebur; [4]) | Lambsquarters plant response rating (lambsquarters; [4]) | Morningglory plant response rating (morningglory; [4])
60: Plant response rating, Barnyardgrass (barnyardgrass [1]; [5]) | Plant response rating, Surinam Grass (Surinam grass; [5]) | Cocklebur plant response rating (cocklebur; [6]) | Crabgrass, Large plant response rating (large crabgrass; [6]) | Foxtail, Giant plant response rating (giant foxtail; [4]) | Foxtail, Giant plant response rating (giant foxtail; [6]) | Rice plant response rating (rice)
30: Barnyardgrass plant response rating (0 to 100 scale) (barnyardgrass [1]; 125 g ai/ha, preemergence) | Barnyardgrass plant response rating (barnyardgrass [1]; [4]) | Corn plant response rating (0 to 100 scale) (corn; 125 g ai/ha, preemergence) | Corn plant response rating (corn; [4]) | Crabgrass, Large plant response rating (large crabgrass; [4]) | Blackgrass plant response rating (blackgrass; [4]) | Wheat plant response rating (wheat; [6])
0: Cocklebur plant response rating (0 to 100 scale) (cocklebur; 125 g ai/ha, preemergence) | Plant response rating, Cocklebur (cocklebur; [5])
90: Plant response rating, Foxtail, Giant (giant foxtail; [5]) | Lambsquarters plant response rating (0 to 100 scale) (lambsquarters; 125 g ai/ha, preemergence) | Velvetleaf plant response rating (velvetleaf; [4])

CCn1nc(C2(C)CC2)cc1C(=O)Nc1cccc(C(=O)N2CC=CC2)c1 [Compound 304]
80: Corn plant response rating (corn; [6]) | Lambsquarters plant response rating (lambsquarters; [4]) | Barnyardgrass plant response rating (barnyardgrass [3])
100: Cocklebur plant response rating (cocklebur; [6]) | Plant response rating, Crabgrass, Large (large crabgrass; [5]) | Lambsquarters plant response rating (0 to 100 scale) (lambsquarters; 125 g ai/ha, preemergence) | Plant response rating, Lambsquarters (lambsquarters; [5]) | Morningglory plant response rating (morningglory; [4]) | Morningglory plant response rating (morningglory; [6]) | Plant response rating, Velvetleaf (velvetleaf; [5])
30: Foxtail, Giant plant response rating (giant foxtail; [4]) | Foxtail, Giant plant response rating (giant foxtail; [6])
70: Plant response rating, Barnyardgrass (barnyardgrass [1]; [5]) | Plant response rating, Surinam Grass (Surinam grass; [5])
40: Corn plant response rating (corn; [4]) | Blackgrass plant response rating (blackgrass; [6])
10: Barnyardgrass plant response rating (0 to 100 scale) (barnyardgrass [1]; 125 g ai/ha, preemergence) | Surinam Grass plant response rating (0 to 100 scale) (Surinam grass; 125 g ai/ha, preemergence) | Surinam Grass plant response rating (Surinam grass; [6]) | Crabgrass, Large plant response rating (0 to 100 scale) (large crabgrass; 125 g ai/ha, preemergence) | Crabgrass, Large plant response rating (large crabgrass; [4]) | Crabgrass, Large plant response rating (large crabgrass; [6]) | Foxtail, Giant plant response rating (0 to 100 scale) (giant foxtail; 125 g ai/ha, preemergence) | Morningglory plant response rating (0 to 100 scale) (morningglory; 125 g ai/ha, preemergence) | Plant response rating, Morningglory (morningglory; [5]) | Velvetleaf plant response rating (velvetleaf; [4]) | Blackgrass plant response rating (blackgrass; [4]) | Wheat plant response rating (wheat; [4])
20: Barnyardgrass plant response rating (barnyardgrass [1]; [4]) | Barnyardgrass plant response rating (barnyardgrass [1]; [6]) | Wheat plant response rating (wheat; [6])
0: Surinam Grass plant response rating (Surinam grass; [4]) | Cocklebur plant response rating (0 to 100 scale) (cocklebur; 125 g ai/ha, preemergence) | Cocklebur plant response rating (cocklebur; [4]) | Plant response rating, Cocklebur (cocklebur; [5]) | Corn plant response rating (0 to 100 scale) (corn; 125 g ai/ha, preemergence)
60: Velvetleaf plant response rating (velvetleaf; [6])
90: Plant response rating, Foxtail, Giant (giant foxtail; [5]) | Lambsquarters plant response rating (lambsquarters; [6]) | Rice plant response rating (rice) | Sedge, Umbrella plant response rating [2] | Ducksalad plant response rating (ducksalad)

CCn1nc(C(C)(C)C)cc1C(=O)Nc1cccc(OC(F)(F)C(F)F)c1 [Compound 333]
40: Barnyardgrass plant response rating (barnyardgrass [1]; [6]) | Plant response rating (0 to 100 scale), Crabgrass, Large (large crabgrass; [7]) | Crabgrass, Large plant response rating (large crabgrass; [4]) | Foxtail, Giant plant response rating (giant foxtail; [6]) | Plant response rating (0 to 100 scale), Lambsquarters (lambsquarters; [7])
60: Morningglory plant response rating (morningglory; [6]) | Velvetleaf plant response rating (velvetleaf; [6])
10: Barnyardgrass plant response rating (barnyardgrass [1]; [4]) | Plant response rating (0 to 100 scale), Surinam Grass (Surinam grass; [7]) | Corn plant response rating (corn; [4]) | Corn plant response rating (corn; [6]) | Plant response rating (0 to 100 scale), Foxtail, Giant (giant foxtail; [7]) | Plant response rating, Morningglory (morningglory; [5]) | Plant response rating (0 to 100 scale), Velvetleaf (velvetleaf; [7])
70: Plant response rating, Crabgrass, Large (large crabgrass; [5]) | Blackgrass plant response rating (blackgrass; [6])
50: Velvetleaf plant response rating (velvetleaf; [4]) | Barnyardgrass plant response rating (barnyardgrass [3])
0: Plant response rating (0 to 100 scale), Barnyardgrass (barnyardgrass [1]; [7]) | Plant response rating (0 to 100 scale), Cocklebur (cocklebur; [7]) | Plant response rating, Cocklebur (cocklebur; [5]) | Plant response rating (0 to 100 scale), Corn (corn; [7]) | Plant response rating, Corn (corn; [5]) | Plant response rating (0 to 100 scale), Morningglory (morningglory; [7])
80: Cocklebur plant response rating (cocklebur; [6]) | Sedge, Umbrella plant response rating [2] | Ducksalad plant response rating (ducksalad)
30: Surinam Grass plant response rating (Surinam grass; [6]) | Foxtail, Giant plant response rating (giant foxtail; [4]) | Morningglory plant response rating (morningglory; [4]) | Blackgrass plant response rating (blackgrass; [4]) | Wheat plant response rating (wheat; [6])
20: Plant response rating, Barnyardgrass (barnyardgrass [1]; [5]) | Surinam Grass plant response rating (Surinam grass; [4]) | Plant response rating, Surinam Grass (Surinam grass; [5]) | Cocklebur plant response rating (cocklebur; [4]) | Plant response rating, Foxtail, Giant (giant foxtail; [5]) | Wheat plant response rating (wheat; [4]) | Rice plant response rating (rice)
100: Crabgrass, Large plant response rating (large crabgrass; [6]) | Plant response rating, Lambsquarters (lambsquarters; [5]) | Lambsquarters plant response rating (lambsquarters; [6])
90: Lambsquarters plant response rating (lambsquarters; [4])

Source: US20060069132A1, “Azolecarboxamide herbicides” (priority 2004, published 2006)
